In PMC8194371 (Journal of medicinal chemistry, 2021):
In brackets after ≈: the same amount, converted by molar mass. Several values for one entry are separate records, joined by “and”; a condition that tells them apart may be missing. Identical values can stand only once. Like-named read-outs stand apart in the source and are kept apart here.

Columns and labels:
[1] = system: Mtb strain CDC1551 dop::MycoMarT7 expressing pupGGE; assay: Accumulation of pupylated proteins; format: cell-based, Mycobacterium tuberculosis
[2] = molecular target: β5c of the human c-20S (Homo sapiens, UniProt P28074); assay: human constitutive proteasome β5c inhibition, suc-LLVY-AMC; format: biochemical; details: for SIapp IC50–β5c / IC50–Mtb20S: apparent selectivity index, rounded to three or fewer significant figures
[3] = molecular target: β5i of the human i-20S (Homo sapiens, UniProt P28062); format: biochemical
[4] = system: Mtb strain MHD1441 (H37Rv WT + pSCK1); format: cell-based, Mycobacterium tuberculosis; details: 0.1-33 μM, day 4
[5] = system: HepG2 cells; assay: Viability of HepG2 cells; details: at 30 μM
[6] = Kinetic solubility; format: physicochemical; details: PBS buffer
[7] = molecular target: Mtb20SOG (Mycobacterium tuberculosis, UniProt P9WHT9); assay: Mtb20SOG proteasome inhibition, suc-LLVY-AMC hydrolysis; format: biochemical; details: Mtb20S IC50, text values
Sequence of Mtb20SOG (P9WHT9 58-291): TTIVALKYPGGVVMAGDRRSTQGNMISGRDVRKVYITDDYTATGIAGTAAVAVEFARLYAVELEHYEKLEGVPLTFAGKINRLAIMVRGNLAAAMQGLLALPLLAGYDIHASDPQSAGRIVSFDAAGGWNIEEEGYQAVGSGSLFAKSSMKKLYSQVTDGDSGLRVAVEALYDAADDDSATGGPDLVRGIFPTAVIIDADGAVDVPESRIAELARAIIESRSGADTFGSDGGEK

Row | Compound | SIapp IC50–β5c / IC50–Mtb20S [2] | SIapp IC50–β5i / IC50–Mtb20S [3] | other results
1 | CC(C)C[C@H](NC(=O)[C@H](CCc1ccccc1)NC(=O)CN1CCOCC1)C(=O)N[C@@H](Cc1ccccc1)C(=O)N[C@@H](CC(C)C)C(=O)[C@@]1(C)CO1 [Carfilzomib, reference compound] | – | – | accumulation of pupylated proteins [1]: led to accumulation of pupylated proteins
2 | O=C1CCCCCCCCCC[C@@H](C(=O)NCc2cccc3ccccc23)NC(=O)[C@H](CC(=O)N2CCCC2)N1 [Macrocycle 2] | >674 | >674 | –
3 | O=C1CCCCCCCCC[C@@H](C(=O)NCc2cccc3ccccc23)NC(=O)[C@H](CC(=O)N2CCCC2)N1 [Macrocycle 3] | >141 | >141 | –
4 | O=C1CCCCCCCCOC[C@@H](C(=O)NCc2cccc3ccccc23)NC(=O)[C@H](CC(=O)N2CCCC2)N1 [Macrocycle 4] | >984 | >984 | –
5 | O=C1CCc2cccc(c2)Oc2ccc(cc2)C[C@@H](C(=O)NCc2ccccc2F)NC(=O)[C@H](CC(=O)N2CCCC2)N1 [Macrocycle 5] | >500 | – | –
6 | O=C1CCc2cccc(c2)Oc2ccc(cc2)C[C@@H](C(=O)NCc2ccccc2F)NC(=O)[C@H](CC(=O)N2CCC[C@@H]2c2ccccc2)N1 [Macrocycle 6] | >13,600 | >13,600 | selectivity for Mtb20S over human c-20S [2]: > 13,600 fold and > 10,000 fold; selectivity for Mtb20S over human i-20S [3]: > 13,600 fold and > 10,000 fold; Pup-GFP accumulation (RFU normalized by OD) [4]: dose-dependent increase of RFU; accumulation of pupylated proteins ([1]; macrocycle 6 at 1, 3, or 10 μM for 48 h, CFZ at 50 μM): dose-dependently promoted the accumulation of pupylated proteins; cytotoxicity toward HepG2 [5]: no appreciable cytotoxicity
7 | O=C1CCCCCCCCOC[C@@H](C(=O)NCc2ccccc2F)NC(=O)[C@H](CC(=O)N2CCC[C@@H]2c2ccccc2)N1 [Macrocycle 9] | >14,000 | >14,000 | solubility at 24 h ([6]; pH 6.8): 1.4 µg/mL (≈ 2.35 µM); solubility at 24 h ([6]; pH 6.8, aqueous buffer, kinetic from dmso stock): < 1.4 µg/mL
8 | O=C1CCc2cccc(c2)OCCCC[C@@H](C(=O)NCc2ccccc2F)NC(=O)[C@H](CC(=O)N2CCC[C@@H]2c2ccccc2)N1 [Macrocycle 10] | >14,400 | >14,400 | selectivity for Mtb20S over human c-20S [2]: > 14,400 fold; selectivity for Mtb20S over human i-20S [3]: > 14,400 fold; Pup-GFP accumulation (RFU normalized by OD) [4]: dose-dependent increase of RFU; cytotoxicity toward HepG2 [5]: no appreciable cytotoxicity
9 | O=C1CCc2cccc(c2)OCCCC[C@@H](C(=O)NCc2ccccc2F)NC(=O)[C@H](CC(=O)N2CCC[C@@H]2C2CC2)N1 [Macrocycle 11] | – | – | IC50 [7]: 6.5 nM
